Holding throughout (assay type): cell-based
Assay [1] deals with A2780. Description: CellTiter-GLO (CTG) assay, combinatorial matrix. As for the experimental part:
(§1) To determine the in vitro cellular viability, cellular ATP concentrations were measured using a luminescence-based homogenous assay format, as described here. […] Optimal cell density for each cell line was determined to guarantee linearity. For viability assays with compounds, cells were then seeded at a density of 200 to 1000 per well in 25 μl in 384-well plates (Greiner Bio-One, Frickenhausen, Germany). After overnight incubation at 37° C./5% CO2, 25 nl or 75 nl compounds were added to each sample well by using BIOMEK FXP Laboratory Automation Workstation (Beckman Coulter, USA). Wells with cells and 0.1% or 0.3% DMSO in culture medium were used as positive controls, wells with cells and 10 μM staurosporine (Selleck Chemicals, Huston, USA) in culture medium were used as negative controls. Upon incubation with compounds for 72 h at 37° C./5% CO2 25 μl Cell Titer Glo reagent (Promega, Madison, USA, European Pat. No. 1131441, U.S. Pat. Nos. 7,083,911, 7,452,663 and 7,732,128) 1:2 diluted with cell culture medium) was added to each well to determine cell viability. 384well-plates were placed for 2 min on an orbital microplate shaker and incubated for further 10 min at room temperature resulting in a stabilization of light signal. Luminescence was measured by Envision Plate Reader (Perkin Elmer, USA).
(§2) All in vitro cell culture experiments were carried out under near physiological glucose concentrations (5 mM) in at least two independent replicates.
For orientation: Cellular ATP, detected with luciferase, serves as a proxy for viable cell number.

Assay [2] relates to HEC59. Put plainly: CellTiter-GLO (CTG) assay, combinatorial matrix. To be noted: HEC59, 72 hours, IMT at the μM of c0, untreated control =100%, read-out: Measured residual activity (cellular ATP content). As for the experimental part: as §1, §2
(§3) To establish the method described, N,N-dimethyl-2-[4-(o-tolyl)-2-oxo-chromen-7-yl]oxy-propanamide, (3S)-1-[2-[4-(2-chloro-4-fluoro-phenyl)-2-oxo-chromen-7-yl]oxypropanoyl]piperidine-3-carboxylic acid, (3S)-1-[(2R)-2-[4-(2-chloro-4-fluoro-phenyl)-2-oxo-chromen-7-yl]oxypropanoyl]piperidine-3-carboxylic acid and BAY-876 were first examined with regard to their effect on the cell growth of twelve different tumour cell lines and the IC50 values were determined. This initial study was followed by validation experiments in a matrix format and in the CTG assay, as described under Example 1), in two tumour cell lines from uterine and ovarian carcinoma (HEC59 and A2780), as well as in primary human blood cells (PBMC) (Table 7).
(§4) Combinations of one concentration of IMT (μM; y-axis) and 30 μM-33 nM BAY-876 (x-axis) were incubated for 72 hours with HEC59, hPBMCs or A2780 and then the cellular ATP-content was determined using the CellTiter-GLO assay format. A: Measured residual activity (%) based on an untreated control group (=100%). B: The combinatorial indices are provided, based on the reference groups treated with the corresponding concentration of only one inhibitor class, according to Berenbaum and Cou & Talalay. <1=synergism, 1-2=additivity, 2>=antagonism.

In assay [3] the test system is primary human blood cells (PBMC). Description: CellTiter-GLO (CTG) assay, combinatorial matrix. The note with it: Homo sapiens, PBMC, hPBMCs, 72 hours, IMT at the μM of c0, untreated control =100%, read-out: Measured residual activity (cellular ATP content). As for the experimental part:
as §1, §2, §3, §4

The test system of assay [4] is A2780. Description: SRB assay, IMT combined with inhibitor. The note with it: A2780; dilution series of the IMT + MEK inhibitor Selumetinib (AZD6244) at constant 1 μM or 31 nM; compared to untreated or MEK inhibitor only (FIG. 1). As for the experimental part: In two studies, the ovarian cell line A2780 was tested for 72 hours with the IMT N,N-dimethyl-2-[4-(o-tolyl)-2-oxo-chromen-7-yl]oxy-propanamide (30 μM-15 nM) and the MEK inhibitor Selumetinib (30 μM-10 nM), or with the IMT 1-[2-[4-(2-chlorophenyl)-2-oxo-chromen-7-yl]oxypropanoyl]piperidine-3-sulfonamide (30 μM-15 nM) and the MEK inhibitor PD318088 (30 μM-10 nM).
Solforhodamine B assay is carried out as described in Voigt W. (2005) Sulforhodamine B Assay and Chemosensitivity. (Methods in Molecular Medicine™, vol 110. Humana Press. https://doi.org/10.1385/1-59259-869-2:039).
The determination of changes in cellular biomass was based on the Solforhodamine B assay format, carried out as described in Voigt W. (2005) Sulforhodamine B Assay and Chemosensitivity. (Methods in Molecular Medicine™, vol 110. Humana Press. https://doi.org/10.1385/1-59259-869-2:039).
as §2
First, 30 different cell lines from 14 different tissue types were tested in the SRB assay format. The cells were examined individually for changes in growth over a period of 120 hours with dilution series of both inhibitors. Untreated cells were used as a negative control group. Subsequently, a dilution series of the respective MAPK signalling pathway SOCs was treated in combination with a fixed concentration of 40 nM (3S)-1-[(2R)-2-[4-(2-chloro-4-fluoro-phenyl)-2-oxo-chromen-7-yl]oxypropanoyl]piperidine-3-carboxylic acid.

In assay [5] the test system is HEC59. Put plainly: CellTiter-GLO (CTG) assay, combinatorial matrix. To be noted: 30 μM to 15 nM IMT + 30 μM to 40 nM BAY-876.

Molecules are shown by their SMILES. Read-outs that look alike come from different tables or passages of the source.

For `Cc1c(NC(=O)c2cc(C(N)=O)nc3cc(F)ccc23)c(C(F)(F)F)nn1Cc1ccc(C#N)cc1` [BAY-876], the activity at 0.04 µM in assay [1] (Homo sapiens, A2780, 72 hours, BAY-876 0.04 μM, IMT at the μM of c0, untreated control =100%, read-out: Measured residual activity (cellular ATP content)) was 88%; in assay [3] (BAY-876 0.04 μM), 104%. The activity at 0.123 µM in assay [1] (Homo sapiens, A2780, 72 hours, BAY-876 0.123 μM, IMT at the μM of c0, untreated control =100%, read-out: Measured residual activity (cellular ATP content)) was 78%; in assay [2] (BAY-876 0.123 μM), 59%. Moreover, the activity at […] in assay [1] (Homo sapiens, A2780, 72 hours, BAY-876 0.37 μM, IMT at the μM of c0, untreated control =100%, read-out: Measured residual activity (cellular ATP content)) turned out to be 90%; in assay [2] (BAY-876 0.370 μM), 58%; in assay [2] (BAY-876 3.3 μM), 18%; in assay [3] (BAY-876 0.12 μM) it was 109%; in assay [3] (BAY-876 0.37 μM), 90%. Moreover, the activity at 3.33 µM in assay [1] (Homo sapiens, A2780, 72 hours, BAY-876 3.33 μM, IMT at the μM of c0, untreated control =100%, read-out: Measured residual activity (cellular ATP content)) came to 78%; in assay [3] (BAY-876 3.33 μM) it was 98%. In addition, the activity at 10 µM came out at 51% in assay [1] (Homo sapiens, A2780, 72 hours, BAY-876 10 μM, IMT at the μM of c0, untreated control =100%, read-out: Measured residual activity (cellular ATP content)); 11% in assay [2] (BAY-876 10 μM); 87% in assay [3] (BAY-876 10 μM). For the same compound, the activity at 30 µM in assay [1] (Homo sapiens, A2780, 72 hours, BAY-876 30 μM, IMT at the μM of c0, untreated control =100%, read-out: Measured residual activity (cellular ATP content)) was 10%; in assay [2] (BAY-876 30 μM), 8%; in assay [3] (BAY-876 30 μM) it was 101%. Further, the activity at 0.041 µM in assay [2] (BAY-876 0.041 μM) worked out at 74%. Besides, the activity at 1.111 µM in assay [2] (BAY-876 1.111 μM) was 32%.

Take `CC(Oc1ccc2c(-c3ccc(F)cc3Cl)cc(=O)oc2c1)C(=O)N1CCC[C@H](C(=O)O)C1` (stereo partly drawn) [(3S)-1-[2-[4-(2-chloro-4-fluoro-phenyl)-2-oxo-chromen-7-yl]oxypropanoyl]piperidine-3-carboxylic acid]: the “growth kinetics in the SRB assay format” value in assay [4] is given as “advantage of the combination treatment”. For the same compound, the “combination of IMT and GLUTi compared to treatment with only the GLUTi BAY-876 alone” value in assay [1] (A2780, CTG matrix, 30 μM to 15 nM IMT + 30 μM to 40 nM BAY-876) is “advantage of the combination”; in assay [5] it was “advantage of the combination”.

The record behind these values is patent publication US20240252454A1, “COMPOSITION COMPRISING AN INHIBITOR OF MITOCHONDRIAL TRANSCRIPTION” (LEAD DISCOVERY CENTER GMBH, priority 2021, published 2024).
